Test results taken from patent US3987055A, “Azasteroids compounds and derivatives” (The Board of Regents for the Oklahoma Agricultural & …, priority 1974, dated 1976).
“And” between values parts separate entries of the source, which are not always exact repeats. Equal entries are not always repeated.

Columns and labels:
L-M cells [1] = assay: growth inhibition of mouse L-M cell line; format: cell-based
Experimental: Cells (1 × 10^5 /ml) were added to the "incubated" compound-containing medium.

KB cells [2] = assay: growth inhibition of human tumor KB cell line; format: cell-based; conditions: 10 μg/ml or greater, read-out: concentration at which growth was inhibited
Experimental: For example, growth of both the human tumor KB* and the mouse L-M** cell lines was inhibited when the cells were grown in media containing 10 μg/ml or greater

KB cells [3] = assay: relative plating efficiency of KB cells (colony formation, 7 days); format: cell-based, human
Experimental: The KB cells were plated in plastic tissue culture dishes and grown in a 5% CO2 gas phase incubator for 7 days. The medium was removed, the plates washed with Hanks' salt solution and the cells stained with a 0.5% aqueous crystal violet solution, rinsed and dried. The colonies were counted and the relative plating efficiency calculated using the number of control colonies as 100 percent.

KB cells [4] = assay: colony and cell morphology of KB cells; format: cell-based, human; conditions: 10 and 20 μg/ml
Experimental: Differences in cell morphology were also observed. […] Since the difference in staining density could be the result of modification of intracellular structures, such as lysosomes, experiments were performed to determine the effect of the compounds on the permeability of lysosomal membrane.

[5] = system: acid phosphatase, KB and L-M cells; assay: relative acid phosphatase staining (permeability of lysosomal membrane) of KB and L-M cells; format: cell-based, human (KB) and mouse (L-M); design: key to Relative acid phosphatase staining: light: cells showing only a few scattered granules; medium: more dense but distinct isolated granules were still detected; heavy: a more intense staining with fewer discrete granules; conditions: 20 μg/ml
Experimental: KB and L-M cells were grown on coverslips in medium 199 with 10% calf serum for the 24 hour growth prior to staining in the presence or absence of compound 5c (20 μg/ml) or compound 5d (20 μg/ml). The cells were washed in Hanks' salt solution, incubated at 37° C in Gomori's substrate solution for 1, 2, or 3 hours, washed, treated with a 1% solution of ammonium sulfide, washed, mounted and observed microscopically. Light staining was designated as cells showing only a few scattered granules; medium staining was more dense but distinct isolated granules were still detected; and heavy staining a more intense staining with fewer discrete granules. Heavy staining denotes increased phosphatase activity.
The acid phosphatase activity was measured in KB and L-M cells grown in medium in the presence or absence compound 5c or 5d (20 μg/ml) for 2 or 24 hours prior to staining (Table 2). Quantitative evaluation of the relative staining intensity of the lysosomes was compared in the treated and untreated cells. […] Thus, cells grown in the presence of compound 5c accumulate the phosphatase substrate within the lysosomes much more rapidly than the control or compound 5d treated cells indicating the compounds ability to alter membrane permeability and thus regulate the accumulation of essential metabolites. Control of this cellular capacity permits regulation of cell division so important in cancer chemotherapy. Since the permeation of the substrate is the rate-limiting step in the phosphatase determination, compound 5c produces a modification of the lysosomal membrane which increased the permeability of the lysosome to the substrate. The results also emphasize the difference in biological activity of compound 5c and 5d type molecules which chemically are similar except at C-3. Differences in the biological activity have been observed when the compounds were tested using various bacteria.

L-M cells [6] = assay: uptake and incorporation of 3H-thymidine, 3H-uridine and 14C-leucine by L-M cells; format: cell-based, mouse; conditions: 15 μg/ml
Experimental: ^3 H-Thymidine (10 μCi), or ^3 H-uridine (10 μCi), or ^14 C-leucine (5 .rho.Ci), was added to suspension cultures of L-M cells (8 × 10^5; /ml) in McCoy's 5a modified medium containing either 0 or 15 μg/ml of compound 5c. The cells were incubated at 37° C. One ml samples were removed at varying intervals and the rates of uptake and incorporation were determined from the liner portion of radioactivity versus time curves.

rat testis tubules [7] = assay: glucose oxidation (glucose-U-14C) by rat testis tubules in vitro; format: cell-based
Experimental: (§1) For these investigations the compounds were diluted in a minimal amount of ethanol and further diluted in saline (0.85%) so that the final concentration was 1 mg/ml. The compounds were placed in solution and gassed under N2 and stored at 5° C until used 2 days later for the in vitro incubation studies. Details of the in vitro incubation procedures may be found in Endocrinology 89:791-800 (1971).
The effects of these compounds on glucose oxidation by testis tubules was examined by incubating about 200 mg of teased testis tubules from mature rats in a 25 ml Erlenmeyer flask containing 3 ml of Krebs Ringer bicarbonate buffer (pH 7.4), D-glucose-U-^14 C (0.5 μCi; 10mM) and 0.25 ml of the azasteroid (1 mg/ml) to be tested. The flasks were incubated for 2 hours at 33° C under 95% O2 :5% CO2. The reaction was terminated by adding 0.25 ml of 5 N H2 SO4. Carbon dioxide was trapped in 0.25 ml of hydroxide of Hyamine. The radioactivity present in the Hyamine was determined by liquid scintillation spectrometry. This table includes a detailed summary of the results obtained and an average for each compound. […] Thus, the compounds have potential for antifertility activity in the control of wild rodent populations and possibly stray animals such as dogs and cats.
CPM = counts per minute. Glucose-U-^14 C activity was 0.5 millicurie.
All compounds were tested in a concentration of 250 mg per flask.

rat testis tubules [8] = assay: lysine-U-14C incorporation into protein by rat testis tubules in vitro; format: cell-based
Experimental: as §1
The effects of the compounds on the incorporation of lysine -U-^14 C into trichloroacetic (TCA) precipitable protein of rat testes was investigated by incubating about 200 mg of teased testis tubules from mature rats in a 25 ml Erlenmeyer flask containing 3 ml of Krebs Ringer bicarbonate buffer (pH 7.4), L-lysine-U-^14 C (0.5 μCi; 0.1mM), glucose (10 mM) and 0.25 ml of the azasteroid to be tested. The flasks were incubated for 1 hour at 33° C under 95% O2 : 5% CO2 and the TCA precipitable protein was isolated and an aliquot used to measure radioactivity.
CPM = counts per minute. All compounds were tested in a concentration of […]

[9] = system: acid phosphatase, KB and L-M cells; assay: relative acid phosphatase staining (permeability of lysosomal membrane) of KB and L-M cells; format: cell-based, human (KB) and mouse (L-M); conditions: control experiment with Triton X-100
[10] = individual flask, 250 mg per flask (so in the source), 2 hours, 33° C
[11] = individual flask, 250 mg per flask (so in the source), 1 hour, 33° C

CC12CCN=C1c1ccc3cc(O)ccc3c1CC2 (stereo not shown) [Compound 5c, 1,10,11,11a-tetrahydro-11a-methyl-2H-naphth[1,2-g]indol-7-ol]
growth rate versus control (L-M cells [1]; 1 μg/ml): same growth rate as the control
growth inhibition at 20 μg/ml (L-M cells [1]; 20 μg/ml): marked inhibition
increase in cell numbers (L-M cells [1]; 20 μg/ml, after three days): no significant increase in cell numbers
activity at 10 µg/mL (L-M cells [1]; Mus musculus, 96 h, 10 μg/ml, fourth day, read-out: growth as % of the control): 50%
minimal effective concentration (L-M cells [1]; Mus musculus, L-M cells, 10 μg/ml or greater, read-out: concentration at which growth was inhibited): ≥ 10 µg/mL
minimal effective concentration (KB cells [2]): ≥ 10 µg/mL
effect on the relative plating efficiency (KB cells [3]; 1 μg/ml): little effect
activity at 1 µg/mL (KB cells [3]; Homo sapiens, KB, 168 h, 1 μg/ml): 91%
activity at 10 µg/mL (KB cells [3]; Homo sapiens, KB, 168 h, 10 μg/ml): 38%
cytotoxicity at 10 µg/mL (KB cells [3]; Homo sapiens, KB, 168 h, 10 μg/ml, 7 days, read-out: cells killed): 62%
activity at 20 µg/mL (KB cells [3]; Homo sapiens, KB, 168 h, 20 μg/ml): 17%
cytotoxicity at 20 µg/mL (KB cells [3]; Homo sapiens, KB, 168 h, 20 μg/ml, 7 days, read-out: cells killed): 83%
cell division (KB cells [4]): did not divide, or if limited division occurred, only a few small colonies were formed containing a small number of cells
density of treated cells (KB cells [4]): less uniform density with areas of heavy and light staining
position of nuclei in treated cells (KB cells [4]): located at the periphery of the cell which contained little cytoplasm
Relative acid phosphatase staining ([5]; 24 h, 1 hour in substrate): light
Relative acid phosphatase staining ([5]; 24 h, 2 hours in substrate): medium
Relative acid phosphatase staining ([5]; 24 h, 3 hours in substrate): heavy
staining reaction versus control ([5]; 24 h, all three substrate incubation times): more intense staining reaction
staining intensity versus untreated cells ([5]; cells treated for 2 hours): indistinguishable from untreated cells
uptake of radioactive thymidine, uridine, and leucine (L-M cells [6]): inhibited
Cell Pool (L-M cells [6]; 3H-thymidine): 700 Cpm/8×10^5 cells/hr
Rate of incorporation (L-M cells [6]; 3H-thymidine): 1,300 Cpm/8×10^5 cells/hr
Rate of uptake (L-M cells [6]; 3H-thymidine): 2,000 Cpm/8×10^5 cells/hr
Cell Pool (L-M cells [6]; 3H-uridine): 1,600 Cpm/8×10^5 cells/hr
Rate of incorporation (L-M cells [6]; 3H-uridine): 1,400 Cpm/8×10^5 cells/hr
Rate of uptake (L-M cells [6]; 3H-uridine): 3,000 Cpm/8×10^5 cells/hr
Cell Pool (L-M cells [6]; 14C-leucine): 1,200 Cpm/8×10^5 cells/hr
Rate of incorporation (L-M cells [6]; 14C-leucine): 2,800 Cpm/8×10^5 cells/hr
Rate of uptake (L-M cells [6]; 14C-leucine): 4,000 Cpm/8×10^5 cells/hr
inhibition at 15 µg/mL (L-M cells [6]; Mus musculus, read-out: reduction of radioactivity present in the pool for each of the precursors): ~66%
AVERAGE glucose oxidation (rat testis tubules [7]; average of flasks): 8,181 CPM/100 mg TISSUE
depression of glucose oxidation in vitro (rat testis tubules [7]; in words): depressed glucose oxidation in vitro more than compounds 4 c and 11b
GLUCOSE OXIDATION per 100 mg (rat testis tubules [7]; [10]): 6,046 CPM/100 mg and 10,317 CPM/100 mg
GLUCOSE OXIDATION per flask (rat testis tubules [7]; [10]): 12,450 CPM/FLASK and 21,027 CPM/FLASK
% DEVIATION FROM CONTROL, glucose oxidation (rat testis tubules [7]; versus saline, 120 min): +20.8%
AVERAGE OF TWO FLASK lysine incorporation (rat testis tubules [8]; average of two flasks): 1,944 CPM/100 mg tissue
lysine incorporation into protein per 100 mg (rat testis tubules [8]; [11]): 1,616 CPM/100 mg and 2,273 CPM/100 mg
lysine incorporation into protein per flask (rat testis tubules [8]; [11]): 3,325 CPM/FLASK and 4,575 CPM/FLASK
induction of synthesis of acid phosphatase [9]: does not induce synthesis of acid phosphatase in the cell
